Source: US20200325178A1, “PEPTIDE NUCLEIC ACID MOLECULES FOR TREATMENT OF GRAM POSITIVE BACTERIAL INFECTION” (priority 2017, published 2020)

Columns and labels:
[1] = tested on: MSSA clinical isolates and ATCC strains; experiment: MIC and MBC against MSSA clinical isolates and ATCC strains; format: cell-based, Staphylococcus aureus; set-up: MIC: unit not given here
Method: (§1) Bioscreen-C instrument was used to detect the MIC and MBC of PNA-CPP derivatives against S. aureus MSSA strains. Different concentrations of PNA-CPP derivatives were prepared in 10 mM of sodium bicarbonate buffer pH-7.4 and added to ˜5.0 Log 10 CFUs in a Honey comb Bioscreen-C plate.
After the growth curve assays, the number of colony forming units (CFU) were counted to determine the MIC and MBC of each PNA-CPP derivative against MSSA.
(§2) Minimum inhibitory concentration (MIC) analyses were performed as described in Clinical and Laboratory Standards Institute, Methods for Dilution Antimicrobial Susceptibility Tests for Bacteria that Grow Aerobically, 7th ed.; Approved Standard M7-A7; CLSI: Wayne, Pa., USA, 2006; volume 26, No. 2. Vancomycin and Oxacillin were used as controls. MIC was determined as the lowest concentration of agent that inhibits bacterial growth detected at A420-580 nm.

[2] = tested on: S. aureus (ATCC BAA-1556); experiment: Murine thigh infection model; format: in vivo; conditions: neutropenic CD-1 mice; 25 mg/kg, 0.2 ml SC, +1 hr; 24 hrs
Method: Female 5-6 week old CD-1 (18-22 gm) were used in this study. Mice were quarantined for 48 hours before use and housed in groups of 5 with free access to food and water during the study.
The animals were made neutropenic by administration of cyclophosphamide on Days −4 and −1. On Days −4 150 mg/kg of cyclohsphamide administered by intraperitoneal route and 100 mg/kg was administered on Days −1. Days listed are referenced from the date of infection (study day-Day 0).
On Day 0, animals were inoculated intramuscularly (0.1 ml/thigh) with ˜1×10^5 CFU/mouse of S. aureus (ATCC BAA-1556) into right thigh. […] Group-3 of mice were administered with vancomycin at 25 mg/kg via subcutaneous route. Group-4 of mice administered with buffer and group-5 used as the inoculation control.
Mice were euthanized by CO2 inhalation and thighs were removed, and placed in 2 ml of sterile PBS, homogenized, serially diluted and plated to determine the CFU counts. Plates were incubated 18-24 hours and CFUs were counted.
Colony were counted and the number of colonies is converted to CFU/thigh by multiplying the number of colonies by the volume of the thigh homogenate spotted and the dilution at which the colonies were counted (5-50 colonies/spot). All count data were transformed into logo CFU/thigh for calculation of means and standard deviations.

[3] = tested on: MRSA clinical isolates and ATCC strains; experiment: MIC and MBC against MRSA clinical isolates and ATCC strains; format: cell-based, Staphylococcus aureus; set-up: unit not given here
Method: (§3) Bioscreen-C instrument was used to detect the MIC and MBC of PNA-CPP derivatives against S. aureus MRSA strains. Different concentration of PNA-CPP derivatives were prepared in 10 mM of sodium bicarbonate buffer pH-7.4 and added to ˜5.0 Log 10 CFUs in a Honey comb Bioscreen-C plate.
After the growth curve assays, the number of colony forming units (CFU) were counted to determine the MIC and MBC of each PNA-CPP derivative against MRSA.
as §2, with “Vancomycin and Oxacillin were used as controls.” left out

S. aureus MSSA strains = experiment: Bioscreen-C dose response growth curve of MSSA over 24 hours; format: cell-based, Staphylococcus aureus; conditions: HCl salts, doses from 100 μg downwards, 10 mM sodium bicarbonate buffer pH-7.4, OD 420-580 nm
Method: as §1
Compound I-V were assayed against MSSA. FIG. 12-16 show a dose response growth curve of MSSA in presence of increasing concentrations of Compound I-HCl (FIG. 12), Compound II-HCl (FIG. 13), Compound III-HCl (FIG. 14), Compound IV-HCl (FIG. 15), and Compound V-HCl (FIG. 16), determined in a Bioscreen-C spectrophotometer.

S. aureus MRSA strains = experiment: Bioscreen-C dose response growth curve of MRSA over 24 hours; format: cell-based, Staphylococcus aureus; conditions: HCl salts, doses from 100 μg downwards, 10 mM sodium bicarbonate buffer pH-7.4, OD 420-580 nm
Method: as §3
Compound I-V were assayed against MRSA. FIG. 6-10 show a dose response growth curve of MRSA in presence of increasing concentrations of Compound I-HCl (FIG. 6), Compound II-HCl (FIG. 7), Compound III-HCl (FIG. 8), Compound IV-HCl (FIG. 9), and Compound V-HCl (FIG. 10), determined in a Bioscreen-C spectrophotometer.

MRSA = experiment: In vitro assay of emergence of resistance, MRSA, 8 days; format: cell-based, S. aureus; conditions: 6.25 μg (twice MBC) in one ml Mueller Hinton broth, 37° C., through Day 8
Method: (§4) To determine the development of resistance in MRSA and MSSA strains against Compound I-HCl and Compound IV-HCl, an in vitro assay was performed. Twice the amount of MBC of Compound I-HCl (6.25 μg) and Compound IV-HCl (6.25 μg) were mixed with ˜5.0 log 10 CFUs in one ml of Mueller Hinton broth and incubated for 8 days at 37° C. Eight tubes of culture were used for each drug and bacterial strains. At 24 hours of interval, culture tubes were centrifuged and spent media were replaced with fresh media in presence of Compound I-HCl and Compound IV-HCl and further incubated to observe the growth of S. aureus strains. At 24 hours interval, one set of culture tube exposed to drugs were selected and a fraction of the culture used to plate on agar plates to observe the reduction of CFU counts as compared to untreated control. The rest of the culture samples were allowed to grow without any drug for additional 24 hours to observe the growth of S. aureus strains. One set of culture tubes without drug was used as the positive control.

MSSA = experiment: In vitro assay of emergence of resistance, MSSA, 8 days; format: cell-based, S. aureus; conditions: 6.25 μg (twice MBC) in one ml Mueller Hinton broth, 37° C., through Day 8
Method: as §4
The assays above were also performed using MSSA strains and Compounds I and IV.

[4] = Single ascending intravenous dose tolerability (MTD) in mice; format: in vivo; conditions: 10 mg/kg single intravenous bolus dose
Method: Single ascending intravenous (IV) dose study was performed to determine tolerability of the drug in mice.
Initially, Compound I-HCl and Compound IV-HCl were administered with a 10 mg/kg intravenous bolus dose using a 10 mL/kg dose volume (0.2 mL) and observed the effects before proceeding to the next higher dose. […] However, higher concentration (>15 mg/kg) had shown adverse effect and death in mice within 30 mins of administration of the drug.

[5] = MSSA table, isolate MRSA#16 [sic]
[6] = MSSA table, isolate MRSA#25 [sic]
[7] = MSSA table, isolate MRSA#27 [sic]
[8] = MSSA table, isolate MRSA#34 [sic]
[9] = MSSA table, isolate MRSA#38 [sic]
[10] = MSSA table, isolate MRSA#57 [sic]
[11] = MSSA table, isolate MRSA#60 [sic]
[12] = MSSA table, isolate printed MRSA#49
[13] = MSSA table, isolate printed MRSA#61

Compound: Cc1onc(-c2ccccc2)c1C(=O)N[C@@H]1C(=O)N2[C@@H]1SC(C)(C)[C@@H]2C(=O)O [Oxacillin, reference compound]
- MIC [1, 5]: 2 ∞g
- MIC [1, 6]: 2 ∞g
- MIC [1, 7]: 2 ∞g
- MIC [1, 8]: 2 ∞g
- MIC [1, 9]: 2 ∞g
- MIC ([1]; MSSA table, isolate MRSA#55): 2 ∞g
- MIC [1, 10]: 4 ∞g
- MIC [1, 11]: 2 ∞g
- MIC [1, 12]: 2 ∞g
- MIC [1, 13]: 2 ∞g
- MIC ([1]; strain BAA 1721): <2 ∞g

Compound: CN[C@H](CC(C)C)C(=O)N[C@H]1C(=O)N[C@@H](CC(N)=O)C(=O)N[C@H]2C(=O)N[C@H]3C(=O)N[C@H](C(=O)N[C@H](C(=O)O)c4cc(O)cc(O)c4-c4cc3ccc4O)[C@H](O)c3ccc(c(Cl)c3)Oc3cc2cc(c3O[C@@H]2O[C@H](CO)[C@@H](O)[C@H](O)[C@H]2O[C@H]2C[C@](C)(N)[C@H](O)[C@H](C)O2)Oc2ccc(cc2Cl)[C@H]1O [Vancomycin, reference compound]
- MIC [1, 5]: 5 ∞g
- MIC [1, 6]: 10 ∞g
- MIC [1, 7]: 10 ∞g
- MIC [1, 8]: 5 ∞g
- MIC [1, 9]: 10 ∞g
- MIC ([1]; MSSA table, isolate MRSA#55): 10 ∞g
- MIC [1, 10]: 20 ∞g
- MIC [1, 11]: 10 ∞g
- MIC [1, 12]: 10 ∞g
- MIC [1, 13]: 5 ∞g
- MIC ([1]; strain BAA 1721): 10 ∞g
- Mean Log 10 CFU/Thigh [2]: 4.39 Log 10 CFU/Thigh
- Mean Log 10 Change vs. 1 hr [2]: −1.23 Log 10
- Mean Log 10 Change vs. 24 hr (vehicle) [2]: −4.14 Log 10

Compound: Compound II: PNA-CPP conjugate: PNA SEQ ID NO: 51, AEA linker, CPP BXRXRRXRRXRRXR; FIG. 2 (CGTCATACGCGGTCC; all peptide nucleic acid (PNA); PNA conjugated to cell-penetrating peptide BXRXRRXRRXRRXR via AEA linker, end not given here)
- MBC ([3]; isolate MRSA#1): 3.25
- MIC ([3]; isolate MRSA#1): 1.56
- MBC ([3]; isolate MRSA#3): 3.25
- MIC ([3]; isolate MRSA#3): 1.56
- MBC ([3]; isolate MRSA#6): 3.25
- MIC ([3]; isolate MRSA#6): 1.56
- MBC ([3]; isolate MRSA#15): 3.25
- MIC ([3]; isolate MRSA#15): 1.56
- MBC ([3]; isolate MRSA#28): 3.25
- MIC ([3]; isolate MRSA#28): 1.56
- MBC ([3]; isolate MRSA#31): 3.25
- MIC ([3]; isolate MRSA#31): 1.56
- MBC ([3]; isolate MRSA#37): 1.56
- MIC ([3]; isolate MRSA#37): 0.78
- MBC ([3]; isolate MRSA#39): 3.25
- MIC ([3]; isolate MRSA#39): 1.56
- MBC ([3]; isolate MRSA#42): 1.56
- MIC ([3]; isolate MRSA#42): 0.78
- MBC ([3]; isolate MRSA#43): 1.56
- MIC ([3]; isolate MRSA#43): 0.78
- MBC ([3]; strain USA 300): 1.56
- MIC ([3]; strain USA 300): 0.78
- lowest dose at which no MSSA growth was observed (growth curve) (S. aureus MSSA strains): 6.25 µg
- MBC [1, 5]: 3.25 ∞g
- MIC [1, 5]: 1.56 ∞g
- MBC [1, 6]: 3.25/3.25 ∞g
- MIC [1, 6]: 3.25/3.25 ∞g
- MBC [1, 7]: 1.56 ∞g
- MIC [1, 7]: 0.78 ∞g
- MBC [1, 8]: 3.25/3.25 ∞g
- MIC [1, 8]: 3.25/3.25 ∞g
- MBC [1, 9]: 3.25/3.25 ∞g
- MIC [1, 9]: 3.25/3.25 ∞g
- MBC ([1]; MSSA table, isolate MRSA#55): 3.25/3.25 ∞g
- MIC ([1]; MSSA table, isolate MRSA#55): 3.25/3.25 ∞g
- MBC [1, 10]: 3.25 ∞g
- MIC [1, 10]: 1.56 ∞g
- MBC [1, 11]: 1.56 ∞g
- MIC [1, 11]: 0.78 ∞g
- MBC [1, 12]: 3.25/3.25 ∞g
- MIC [1, 12]: 3.25/3.25 ∞g
- MBC [1, 13]: 1.56 ∞g
- MIC [1, 13]: 0.78 ∞g
- MBC ([1]; strain BAA 1721): 1.56 ∞g
- MIC ([1]; strain BAA 1721): 0.78 ∞g

Compound: Compound III: PNA-CPP conjugate: PNA SEQ ID NO: 51, Glycine-Glycine linker, CPP BXRXRRXRRXRRXR; FIG. 3 (CGTCATACGCGGTCC; all peptide nucleic acid (PNA); PNA conjugated to cell-penetrating peptide via glycine-glycine linker, end not given here, further chemistry not fully specified)
- lowest dose at which no MRSA growth was observed (growth curve) (S. aureus MRSA strains): 12.5 µg
- lowest dose at which no MSSA growth was observed (growth curve) (S. aureus MSSA strains): 25 µg

Compound: Compound IV: PNA-CPP conjugate: PNA SEQ ID NO: 51, AEEA linker, homo-arginine CPP BXhRXhRhRXhRhRXhRhRXhR; FIG. 4 (CGTCATACGCGGTCC; all peptide nucleic acid (PNA); homo-arginine cell-penetrating peptide attached via AEEA linker, further chemistry not fully specified)
- lowest dose at which no MSSA growth was observed (growth curve) (S. aureus MSSA strains): 6.25 µg
- MRSA CFU counts and emergence of resistant strains (MRSA): reduced MRSA CFUs without emergence of resistant strains
- MSSA CFU counts and emergence of resistant strains (MSSA): reduced MSSA CFUs without emergence of resistant strains
- tolerability in mice [4]: well tolerated

Compound: Compound V: PNA-CPP conjugate: PNA SEQ ID NO: 51, AEEA linker, D-arginine CPP BXdRXdRdRXdRdRXdRdRXdR; FIG. 5 (CGTCATACGCGGTCC; all peptide nucleic acid (PNA); PNA conjugated to D-arginine cell-penetrating peptide via AEEA linker, end not given here, further chemistry not fully specified)
- lowest dose at which no MSSA growth was observed (growth curve) (S. aureus MSSA strains): 25 µg
